Patent US20120207742A1 (priority 2011, published 2012)

Test system: DU-145 cells
Format: cell-based, human

For `C=C1[C@@H](C)[C@H]2[C@H](Cc3ccccc3)NC(=O)[C@]23[C@H](OC(C)=O)/C=C/[C@@](C)(O)C(=O)[C@@H](C)C/C=C/[C@H]3[C@@H]1O` [Cytochalasin-D], the “effect on cell migration” value was “did not migrate”.
